Assay: molar heat capacity at constant pressure; wn = mass fraction of the nth substance listed
Conditions: Small (less than 1 g) adiabatic calorimetry

CCCCn1cc[n+](C)c1.[Br-] [1-butyl-3-methylimidazolium bromide] + O
Crystal
Conditions | molar heat capacity at constant pressure [J/K/mol]
257.1 K, w2 = 0.0169 | 211.52
257.12 K, w2 = 0.00482 | 207.32
257.24 K, w2 = 0.0495 | 210.08
257.33 K, w2 = 0.0051 | 208.6
257.89 K, w2 = 0.00482 | 208.45
258.27 K, w2 = 0.0051 | 209.35
258.32 K, w2 = 0.00482 | 208.23
258.68 K, w2 = 0.00482 | 208.41
258.78 K, w2 = 0.0169 | 213.4
259.16 K, w2 = 0.0169 | 213.8
259.51 K, w2 = 0.0495 | 213.48
259.61 K, w2 = 0.0051 | 210.47
259.93 K, w2 = 0.0051 | 210.82
259.98 K, w2 = 0.00482 | 210.49
260.24 K, w2 = 0.00482 | 209.97
260.65 K, w2 = 0.00482 | 210.2
260.87 K, w2 = 0.0169 | 215.76
260.94 K, w2 = 0.0051 | 211.8
261.22 K, w2 = 0.0169 | 216.33
261.77 K, w2 = 0.0495 | 217.08
262.06 K, w2 = 0.00482 | 211.93
262.28 K, w2 = 0.0051 | 212.88
262.52 K, w2 = 0.0051 | 213.06
262.95 K, w2 = 0.0169 | 218.39
262.98 K, w2 = 0.00482 | 212.09
263.28 K, w2 = 0.0169 | 218.78
263.78 K, w2 = 0.0051 | 214.35
264.01 K, w2 = 0.0495 | 220.81
264.14 K, w2 = 0.00482 | 213.82
265.04 K, w2 = 0.0169 | 221.03
265.12 K, w2 = 0.0051 | 215.36
265.24 K, w2 = 0.0051 | 215.65
265.32 K, w2 = 0.00482 | 214.05
265.34 K, w2 = 0.0169 | 221.47
266.23 K, w2 = 0.0495 | 224.56
266.24 K, w2 = 0.00482 | 216.31
266.58 K, w2 = 0.0051 | 216.86
267.13 K, w2 = 0.0169 | 223.7
267.4 K, w2 = 0.0169 | 224.14
267.66 K, w2 = 0.00482 | 216.04
267.71 K, w2 = 0.0051 | 217.69
268.43 K, w2 = 0.0495 | 228.48
269.22 K, w2 = 0.0169 | 226.58
269.45 K, w2 = 0.0169 | 226.98
270 K, w2 = 0.00482 | 218.06
270.31 K, w2 = 0.0051 | 220.13
270.61 K, w2 = 0.0495 | 232.41
271.3 K, w2 = 0.0169 | 229.49
271.51 K, w2 = 0.0169 | 229.82
272.34 K, w2 = 0.00482 | 220.16
272.91 K, w2 = 0.0051 | 222.62
273.18 K, w2 = 0.0495 | 242
273.57 K, w2 = 0.0169 | 232.77
275.36 K, w2 = 0.00482 | 223.11
275.51 K, w2 = 0.0051 | 225.17
275.62 K, w2 = 0.0169 | 235.94
276.24 K, w2 = 0.0495 | 247.28
277.2 K, w2 = 0.00482 | 225.01
278.11 K, w2 = 0.0051 | 227.74
279.23 K, w2 = 0.0169 | 242.23
279.26 K, w2 = 0.0495 | 254.65
279.32 K, w2 = 0.00482 | 227.27
279.78 K, w2 = 0.00482 | 229.54
280.71 K, w2 = 0.0051 | 230.48
281.42 K, w2 = 0.00482 | 229.46
282.24 K, w2 = 0.0495 | 262.55
283.31 K, w2 = 0.0051 | 233.23
283.5 K, w2 = 0.00482 | 230.68
284.39 K, w2 = 0.0169 | 251.43
285.17 K, w2 = 0.0495 | 271.18
285.58 K, w2 = 0.00482 | 233.7
285.91 K, w2 = 0.0051 | 236.24
287.66 K, w2 = 0.00482 | 235.67
288.14 K, w2 = 0.0495 | 280.22
288.51 K, w2 = 0.0051 | 239.25
289.53 K, w2 = 0.0169 | 262.01
289.74 K, w2 = 0.00482 | 238.04
290.97 K, w2 = 0.0495 | 290.4
291.11 K, w2 = 0.0051 | 242.54
291.83 K, w2 = 0.00482 | 240.73
293.7 K, w2 = 0.0051 | 246.11
293.74 K, w2 = 0.0495 | 300.57
293.9 K, w2 = 0.00482 | 243.2
294.65 K, w2 = 0.0169 | 274.42
295.05 K, w2 = 0.00482 | 246.53
295.98 K, w2 = 0.00482 | 245.88
296.3 K, w2 = 0.0051 | 249.8
296.46 K, w2 = 0.0495 | 310.98
298.06 K, w2 = 0.00482 | 248.83
298.89 K, w2 = 0.0051 | 253.84
299.11 K, w2 = 0.0495 | 321.36
299.76 K, w2 = 0.0169 | 289.83
300.14 K, w2 = 0.00482 | 252.27
301.49 K, w2 = 0.0051 | 258.28
301.7 K, w2 = 0.0495 | 332.6
303.76 K, w2 = 0.00482 | 260.04
304.07 K, w2 = 0.0051 | 263.07
304.21 K, w2 = 0.0495 | 344.68
306.66 K, w2 = 0.0051 | 268.79
306.66 K, w2 = 0.0495 | 358.21
309.04 K, w2 = 0.0495 | 371.9
309.23 K, w2 = 0.0051 | 274.95
311.81 K, w2 = 0.0051 | 281.91
314.38 K, w2 = 0.0051 | 289.81

101 kPa, Liquid
Conditions | molar heat capacity at constant pressure [J/K/mol]
258.42 K, w2 = 0.0495 | 201.89
260.51 K, w2 = 0.0495 | 202.44
262.59 K, w2 = 0.0495 | 203.15
264.68 K, w2 = 0.0495 | 203.66
266.76 K, w2 = 0.0495 | 204.28
268.85 K, w2 = 0.0495 | 204.83
271.36 K, w2 = 0.0495 | 205.69
274.29 K, w2 = 0.0495 | 206.48
277.23 K, w2 = 0.0495 | 207.26
280.16 K, w2 = 0.0495 | 208.13
283.1 K, w2 = 0.0495 | 209.06
286.03 K, w2 = 0.0495 | 209.95
288.97 K, w2 = 0.0495 | 210.91
291.91 K, w2 = 0.0495 | 211.72
294.84 K, w2 = 0.0495 | 212.72
297.78 K, w2 = 0.0495 | 213.47
300.72 K, w2 = 0.0495 | 214.41
303.65 K, w2 = 0.0495 | 215.41
306.59 K, w2 = 0.0495 | 216.44
309.53 K, w2 = 0.0495 | 217.39
312.47 K, w2 = 0.0495 | 218.35
315.41 K, w2 = 0.0495 | 219.31
321.27 K, w2 = 0.0495 | 221.21
330.56 K, w2 = 0.0495 | 224.12
333.86 K, w2 = 0.0495 | 225.96
337.13 K, w2 = 0.0495 | 227.18
340.39 K, w2 = 0.0495 | 228.38
343.64 K, w2 = 0.0495 | 229.51
346.87 K, w2 = 0.0495 | 230.63
350.08 K, w2 = 0.0495 | 232.05
352.35 K, w2 = 0.0169 | 289.81
353.26 K, w2 = 0.0495 | 232.65
355.87 K, w2 = 0.0051 | 320.97
356.41 K, w2 = 0.0495 | 233.93
357.85 K, w2 = 0.00482 | 320.3
358.14 K, w2 = 0.0169 | 293.37
358.58 K, w2 = 0.0051 | 322.63
361.53 K, w2 = 0.0495 | 236.39
363.43 K, w2 = 0.0169 | 295.6
364.71 K, w2 = 0.0495 | 237.6
367.1 K, w2 = 0.00482 | 323.63
367.89 K, w2 = 0.0495 | 238.53

Reference: the NIST ThermoML archive (doi:10.1016/j.jct.2006.05.008)
